Source: the Bradley open melting point set (2014)
“And” between values parts separate entries of the source, which are not always exact repeats. Equal values may be shown once. Where a name gives a salt, the structure may show the parent alone.

melting point | SMILES
135 °C and 136 °C | CCC1(c2ccccc2)NC(=O)N(C)C1=O (configuration not stated) [mephenytoin]
135 °C | O=C(O)Cc1ccccc1Oc1ccc(Cl)cc1Cl [fenclofenac]
157 °C | O=C(O)c1cccc(Br)c1 [m-bromobenzoic_acid]
141 °C | O=[N+]([O-])c1ccc2[nH]ccc2c1 [5-nitroindole]
41 °C | BrC(c1ccccc1)c1ccccc1 [bromodiphenylmethane]
40 °C | N#Cc1cccc(I)c1 [3-iodobenzonitrile]
23 °C | Clc1cc(Cl)nc(Cl)n1 [2,4,6-trichloropyrimidine]
173 °C | COc1cc(/C=C/C(=O)CC(=O)/C=C/c2ccc(O)c(OC)c2)ccc1O [curcumin]
175 °C | O=[N+]([O-])c1ccc(I)cc1 [1-iodo-4-nitrobenzene]
156 °C | CCOC(=O)/C(C#N)=N\Nc1cccc([N+](=O)[O-])c1 [Ethyl (2Z)-cyano[(3-nitrophenyl)hydrazono]acetate]
165 °C | CN(C)[C@@H]1C(O)=C(C(N)=O)C(=O)[C@@]2(O)C(O)=C3C(=O)c4c(O)cccc4[C@@](C)(O)[C@H]3C[C@@H]12 [Tetracycline]
149 °C | Cc1c(CN2CCOC(c3ccccc3)C2C)c(=O)n(-c2ccccc2)n1C (configuration not stated) [morazone]
127 °C | CC(Oc1c(Cl)cccc1Cl)C1=NCCN1 (configuration not stated) [Lofexidine]
86 °C | Cc1c[nH]c(C)n1 [2,4-dimethylimidazole]
190 °C | CC(CO)(CO)CO [1,1,1-tris(hydroxymethyl)ethane]
-100 °C | COC=O [methyl formate]
-62 °C | CCCCNCCCC [di-n-butylamine]
-50 °C | CCCCC(=O)CCCC [5-nonanone]
63 °C | Cc1cc(C)cc(O)c1 [3,5-dimethylphenol]
180 °C | COc1cc(/C=C/C(=O)CC(=O)/C=C/c2ccc(O)c(OC)c2)ccc1O
144 °C | CCOc1ccc2ccccc2c1C(=O)O [2-ethoxy-1-naphthoic acid]
237 °C (2×) and 238 °C | O=C(O)c1cccnc1 [nicotinic acid]
59 °C | CCOc1ccc(N=C=S)cc1 [4-ethoxyphenyl isothiocyanate]
113 °C | Cc1cc(=O)n(-c2ccccc2)n1C [antipyrine]
43 °C | Cc1cccc(N)n1 [2-amino-6-methylpyridine]
156 °C | N#CC(=CNNc1ccccc1)c1ccccc1 [2-phenyl-3-(2-phenylhydrazino)prop-2-enenitrile]

melting point | SMILES
101 °C | CC12CCC(O)CC1CC1(OCCO1)C1C2CCC2(C)C1CCC21OCCO1 (configuration not stated)
186 °C | CC(C)/C=N/Nc1ccc([N+](=O)[O-])cc1[N+](=O)[O-] [(2E)-1-(2,4-Dinitrophenyl)-2-(2-methylpropylidene)hydrazine]
125 °C | O=C(O)c1ccccc1Nc1cccc(C(F)(F)F)c1 [flufenamic acid]
37 °C | CC1(O)CCCC1 [1-methylcyclopentanol]
56 °C | CC(=O)c1ccccc1-c1ccccc1 [2-acetylbiphenyl]
-18 °C | CCCCCCCCC=O [Nonanal]
29 °C | C/C(=C/C(=O)O)C(F)(F)F [3-(trifluoromethyl)crotonic acid]
142 °C | O=C(O)c1ccccc1Cl [2-Chlorobenzoic acid]
53 °C | C(=N\c1ccccc1)/c1ccccc1 [N-benzylideneaniline]
-12 °C | CCCCC/C=C\C/C=C\CCCCCCCC(=O)O [linoleic acid]
46 °C | COC(=O)c1sccc1O [methyl 3-hydroxythiophene-2-carboxylate]
131 °C | COC(=O)c1ccc(O)cc1 [methyl-p-hydroxybenzoate]
211 °C | COC(=O)c1[nH]c(C(=O)OC)c(O)c1O [dimethyl 3,4-dihydroxypyrrole-2,5-dicarboxylate]
-53 °C | O=C1C=CCCC1 [2-cyclohexene-1-one]
158 °C | O=c1cc(-c2ccccc2)oc2cccc(O)c12 [5-hydroxyflavone]
-42 °C | CCCCCCOCCO [2-(n-hexyloxy)ethanol]
49 °C | Cc1cccc(C)c1O [2,6-dimethylphenol]
189 °C | Nc1ccc(C(=O)O)cc1 [p-aminobenzoic acid]
86 °C | O=C(N[C@H](Cc1ccccc1)C(=O)O)OCc1ccccc1 [N-benzyloxycarbonyl-D-phenylalanine]
1 °C | C=Cc1cccc(O)c1 [m-vinyl_phenol]
102 °C | COc1ccc(C#N)c(Cl)c1OC [2-chloro-3,4-dimethoxybenzonitrile]
268 °C | C1C2CC3CC1CC(C2)C3 [adamantane]
170 °C | NC(=O)c1cccc(O)c1 [m-hydroxybenzamide]
146 °C | Cc1ccc(N2C(=O)C=CC2=O)cc1Cl [N-(3-chloro-4-methylphenyl)maleimide]
126 °C | CC(=O)[C@H]1CC[C@H]2[C@@H]3CCC4=CC(=O)CC[C@]4(C)[C@H]3CC[C@]12C [progesterone]
174 °C | NC(=S)C1COc2ccccc2O1 (configuration not stated) [1,4-benzodioxane-2-thiocarboxamide]

melting point | SMILES
-26 °C | c1ccc(CNCc2ccccc2)cc1 [dibenzylamine]
185 °C | COc1cc(OC)c2c(c1)C(O)OC2=O (configuration not stated) [3-hydroxy-5,7-dimethoxy-2-benzofuran-1(3H)-one]
56 °C | O=S(=O)(Cl)c1ccc(Br)cc1C(F)(F)F [4-bromo-2-(trifluoromethyl)benzenesulfonyl chloride]
184 °C | CC1=C(CC(=O)O)c2cc(F)ccc2/C1=C\c1ccc([S+](C)[O-])cc1 (configuration not stated) [Sulindac]
57 °C | CCCCCCCCCCC#CC#CCCCCCCCCC(=O)O [10,12-tricosadiynoic acid]
82 °C | N#C/C=C/c1cc(C(F)(F)F)cc(C(F)(F)F)c1 [3,5-bis(trifluoromethyl)cinnamonitrile]
142 °C | CCOC(=O)c1[nH]c(C)c(C(C)=O)c1C [3-acetyl-2,4-dimethyl-5-(ethoxycarbonyl)pyrrole]
184 °C | Oc1cccc(C2CNCCN2)c1 (configuration not stated) [3-(2-piperazinyl)phenol]
14 °C | CCCCCCCC/C=CCCCCCCCC(=O)O [oleic acid]
200 °C | Cc1cc(C)nc(NS(=O)(=O)c2ccc(N)cc2)n1 [sulfamethazine]
172 °C | NC(=O)NNc1ccccc1 [1-phenylsemicarbazide]
111 °C (2×) and 115 °C and 110 °C | CC(C(=O)O)c1ccc(-c2ccccc2)c(F)c1 (configuration not stated) [flurbiprofen]
106 °C | Cc1cc(C(=O)NNCc2ccccc2)no1 [isocarboxazid]
13 °C | CCCCCCCCCC(C)=O [2-undecanone]
162 °C | CC(C)CCCC(C)C1CC[C@@]2(C)[C@@]34CCC5[C@H](C)[C@@H](O)CC[C@]5(C)[C@]3(CC[C@]12C)O4 (some centres not stated)
60 °C | Cc1cc(C)c([N+](=O)[O-])c(C)c1Br [2-bromo-4-nitro-1,3,5-trimethylbenzene]
189 °C | NCCOB(c1ccccc1)c1ccccc1 [2-aminoethyl diphenylborinate]
192 °C | Nc1ccc(S(=O)(=O)Nc2ccccn2)cc1 [Sulfapyridine]
-44 °C | CCOCCOCCOCC [diethylene glycol diethyl ether]
128 °C | NC(=S)N1CCCCC1 [piperidine-1-thiocarboxamide]
41 °C | CCCCCCCCCCCCCCCCCCCCC [N-heneicosane]
120 °C | Cc1ccc(cc1NC(=O)/C=CC(=O)O)Cl [N-(5-chloro-2-methylphenyl)maleamic acid]
120 °C | c1ccc(CN(CC2=NCCN2)c2ccccc2)cc1 [antazoline]
182 °C | O=Cc1cc(Br)c(O)c(Br)c1 [3,5-dibromo-4-hydroxybenzaldehyde]

SMILES | melting point
CC(Br)C(Br)C(=O)O (configuration not stated) [2,3-dibromobutyric acid] | 86 °C
N#Cc1ccc(O)cc1 [4-Hydroxybenzonitrile] | 112 °C
CC(Cc1ccccc1)NC(C#N)c1ccccc1 (configuration not stated) [amphetaminil] | 85 °C
Nc1ccc(Br)cc1 [4-bromoaniline] | 63 °C
c1cc2c3c(cccc3c1)CC2 [1,2-Dihydroacenaphthylene] | 95 °C
O=C1CN=C(c2ccccc2F)c2cc(Cl)ccc2N1CC1CC1 [flutoprazepam] | 118 °C
O=C(O)c1cc(Cl)c([N+](=O)[O-])cc1[N+](=O)[O-] [5-chloro-2,4-dinitrobenzoic acid] | 181 °C
Fc1ccc(N2CCNCC2)cc1 [1-(4-fluorophenyl)piperazine] | 32 °C
Oc1ccc(Cl)c(Cl)c1 [3,4-dichlorophenol] | 66 °C
COP(=S)(OC)Oc1cc(Cl)c(Cl)cc1Cl [Fenchlorphos] | 38 °C
Clc1ccc(Cl)c(Cl)c1 [1,2,4-trichlorobenzene] | 17 °C
c1ccc(Cn2ccnc2)cc1 [1-benzylimidazole] | 71 °C
C[C@]12CC[C@H]3[C@@H](CCC4=CC(=O)CC[C@@]43C)[C@@H]1CC[C@@H]2OC(=O)CCc1ccccc1 [Testosterone phenylpropanoate] | 116 °C
C=CCN [allylamine] | -88 °C
CCC1(CC)C(=O)NC(=O)N(C)C1=O [Metharbital] | 150 °C
COc1ccc2c3c1O[C@H]1[C@@H](O)CC[C@H]4[C@@H](C2)N(C)CC[C@@]341 [Dihydrocodeine] | 112 °C
O=[N+]([O-])/C=C/c1ccc(Cl)c(Cl)c1 [3,4-dichloro-beta-nitrostyrene] | 93 °C
c1ccc2c(c1)Nc1ccccc1S2 [Phenothazine] | 187 °C
CCCC(C)(COC(N)=O)COC(=O)NC(C)C (configuration not stated) [carisoprodol] | 92 °C
OC(O)C(Cl)(Cl)Cl [chloral hydrate] | 57 °C
N#CCc1ccc(N)cc1 [4-aminobenzyl_cyanide] | 45 °C
